# Reference: EPA's ToxRefDB 2
# Experiments:
# [1] = test system: mouse; details: Fertility (Segment I); cd1; Oral; Gavage/Intubation; dose end: 1 generation; group: parental; systemic / pathology gross / sperm measure / sperm morphology
# [2] = test system: rat; details: Subchronic oral toxicity in rodents, fischer, Feed, dose end: 13 week
# [3] = test system: mouse; details: Subchronic oral toxicity in rodents, b6c3f1, Feed, dose end: 13 week
# [4] = test system: guinea-pig; details: Subchronic dermal toxicity, hartley, Topical, dose end: 13 week, group: systemic
# [5] = test system: rat; details: Prenatal developmental toxicity study, sprague dawley, Oral, Gavage/Intubation, dose end: 16 GD
# [6] = test system: rat; details: Prenatal developmental toxicity study, sprague dawley, Oral, Gavage/Intubation, dose end: 16 GD; remark: listed apart in the source
# [7] = test system: rat; details: Prenatal developmental toxicity study, wistar, Oral, Gavage/Intubation, dose end: 17 GD
# [8] = test system: rabbit; details: Prenatal developmental toxicity study, new zealand white, Dermal, Topical, dose end: 18 GD
# [9] = test system: mouse; details: Carcinogenicity; cd1; Oral; Feed; dose end: 105 week; group: systemic; systemic / pathology microscopic / liver / adenocarcinoma + systemic / pathology microscopic / liver / adenoma + systemic / pathology …
# [10] = test system: rat; details: Combined chronic toxicity/carcinogenicity, fischer, Oral, Feed, dose end: 24 month, group: systemic
# [11] = test system: rabbit; details: Prenatal developmental toxicity study, new zealand white, Oral, Gavage/Intubation, dose end: 19 GD
# [12] = test system: rat; details: Subchronic oral toxicity in rodents, sprague dawley, Feed, dose end: 90 day, group: systemic, systemic / organ weight / liver / absolute + systemic / organ weight / liver / relative to body weight + systemic / clinical chemistry / …
# [13] = test system: rat; details: Prenatal developmental toxicity study, sprague dawley, Oral, Gavage/Intubation, dose end: 15 GD
# [14] = test system: mouse; details: Combined chronic toxicity/carcinogenicity; other; Oral; Feed; dose end: 99 week; group: systemic; systemic / hematology / erythrocyte (rbc) count differential / erythrocyte (rbc) + systemic / hematology / hematocrit (hct) / hematocrit (…
# [15] = test system: dog; details: Chronic toxicity, beagle, Oral, Capsule, dose end: 52 week, group: systemic
# [16] = test system: dog; details: Subchronic oral toxicity in nonrodent, beagle, Capsule, dose end: 13 week, group: systemic, systemic / organ weight / thyroid gland / absolute + systemic / organ weight / thyroid gland / relative to body weight
# [17] = group: maternal, reproductive / reproductive performance / estrous cycle / length
# [18] = group: systemic, systemic / clinical chemistry / alkaline phosphatase (alp/alk) / alkaline phosphatase (alp/alk) + systemic / clinical chemistry / bile acids…
# [19] = group: systemic, systemic / in life observation / body weight / body weight + systemic / in life observation / clinical signs / drooping eyelids (ptosis) + …
# [20] = systemic / clinical chemistry / lactic acid dehydrogenase (ldh) / lactic acid dehydrogenase (ldh) + systemic / hematology / mean corpuscular…
# [21] = systemic / pathology microscopic / liver / fatty change + systemic / pathology microscopic / liver / necrosis + systemic / urinalysis / …
# [22] = group: developmental, developmental / developmental malformation / bone / misaligned + developmental / developmental malformation / bone / ossification sites + …
# [23] = group: maternal, reproductive / reproductive performance / resorptions / resorptions + systemic / in life observation / body weight / body weight + systemic…
# [24] = group: developmental, developmental / developmental malformation / aortic arch / [other] + developmental / developmental malformation / aortic arch / malformation…
# [25] = group: developmental, developmental / developmental malformation / bone / ossification sites + developmental / developmental malformation / bone / supernumerary…
# [26] = group: maternal, reproductive / reproductive performance / resorptions / resorptions + reproductive / offspring survival early / litter size / litter size
# [27] = group: developmental, systemic / in life observation / body weight / offspring (pup) weight gain + developmental / developmental malformation / aortic arch / …
# [28] = group: maternal, reproductive / offspring survival early / live fetuses / live fetuses + reproductive / offspring survival early / litter size / litter size…
# [29] = group: developmental, developmental / developmental malformation / bone / delayed ossification + developmental / developmental malformation / bone / knobby + …
# [30] = group: maternal, reproductive / reproductive performance / resorptions / resorptions + systemic / hematology / erythrocyte (rbc) count differential / …
# [31] = systemic / organ weight / liver / absolute
# [32] = systemic / organ weight / liver / absolute + systemic / pathology microscopic / liver / adenocarcinoma + systemic / pathology microscopic / …
# [33] = group: developmental, developmental / developmental malformation / limb / hyperflexion + systemic / in life observation / body weight / fetal weight + …
# [34] = group: maternal, systemic / in life observation / body weight / body weight gain + systemic / in life observation / food consumption / food consumption
# [35] = group: maternal, systemic / in life observation / body weight / body weight gain + systemic / in life observation / food consumption / food consumption + …
# [36] = group: developmental, developmental / developmental malformation / bone / incomplete ossification + systemic / in life observation / body weight / fetal weight
# [37] = group: maternal, systemic / in life observation / body weight / body weight + systemic / in life observation / body weight / body weight gain + reproductive…
# [38] = systemic / organ weight / liver / absolute + systemic / organ weight / liver / relative to body weight
# [39] = systemic / organ weight / liver / absolute + systemic / organ weight / liver / relative to body weight + systemic / clinical chemistry / …
structure (smiles),measurement,setting,value
"NC(=Nc1ccccc1)Nc1ccccc1 [1,3-Diphenylguanidine]",LEL,[1],16 mg/kg/day
same,LOAEL,[1],> 16 mg/kg/day
same,NEL,[1],4 mg/kg/day
same,NOAEL,[1],≥ 16 mg/kg/day
same,LEL,[2]; [17],49 mg/kg/day
same,LOAEL,[2]; [17],> 184 mg/kg/day
same,NEL,[2]; [17],32 mg/kg/day
same,NOAEL,[2]; [17],≥ 184 mg/kg/day
same,LEL,[2]; [18],17 mg/kg/day
same,LOAEL,[2]; [18],95 mg/kg/day
same,NEL,[2]; [18],< 17 mg/kg/day
same,NOAEL,[2]; [18],49 mg/kg/day
same,LEL,[3]; [17],577 mg/kg/day
same,LOAEL,[3]; [17],> 577 mg/kg/day
same,NEL,[3]; [17],285 mg/kg/day
same,NOAEL,[3]; [17],≥ 577 mg/kg/day
same,LOAEL,"[3]; group: systemic, systemic / in life observation / body weight / body weight + systemic / in life observation / clinical signs / drooping eyelids (ptosis)",231 mg/kg/day
same,NEL,[3]; [19],38 mg/kg/day
same,NOAEL,[3]; [19],114 mg/kg/day
same,LEL,"[3]; group: systemic, systemic / organ weight / liver / relative to body weight",75 mg/kg/day
COCCOCCO [Diethylene glycol monomethyl ether],LOAEL,[4]; [20],> 1000 mg/kg/day
same,NOAEL,[4]; [20],≥ 1000 mg/kg/day
same,LEL,[4]; [21],40 mg/kg/day
same,NEL,[4]; [21],< 40 mg/kg/day
same,LOAEL,[5]; [22],> 5180 mg/kg/day
same,NEL,[5]; [22],1000 mg/kg/day
same,NOAEL,[5]; [22],≥ 5180 mg/kg/day
same,LEL,"[5]; group: developmental, developmental / developmental malformation / bone / ossification sites",1500 mg/kg/day
same,LOAEL,[5]; [23],> 5180 mg/kg/day
same,NEL,[5]; [23],2240 mg/kg/day
same,NOAEL,[5]; [23],≥ 5180 mg/kg/day
same,LEL,"[5]; group: maternal, systemic / in life observation / body weight / body weight + systemic / in life observation / food consumption / food consumption + …",3340 mg/kg/day
same,LOAEL,[6]; [24],> 2160 mg/kg/day
same,NOAEL,[6]; [24],≥ 2160 mg/kg/day
same,LEL,[6]; [25],720 mg/kg/day
same,NEL,[6]; [25],< 720 mg/kg/day
same,NEL,"[6]; group: maternal, reproductive / reproductive performance / resorptions / resorptions",720 mg/kg/day
same,LEL,[6]; [26],2160 mg/kg/day
same,LOAEL,[6]; [26],> 2160 mg/kg/day
same,NOAEL,[6]; [26],≥ 2160 mg/kg/day
same,NEL,"[7]; group: developmental, systemic / in life observation / body weight / offspring (pup) weight gain",200 mg/kg/day
same,LOAEL,[7]; [27],> 1800 mg/kg/day
same,NOAEL,[7]; [27],≥ 1800 mg/kg/day
same,LEL,"[7]; group: developmental, systemic / in life observation / body weight / offspring (pup) weight gain + developmental / developmental malformation / bone / …",600 mg/kg/day
same,LEL,"[7]; group: maternal, reproductive / offspring survival early / live fetuses / live fetuses",600 mg/kg/day
same,NEL,"[7]; group: maternal, reproductive / offspring survival early / live fetuses / live fetuses + reproductive / offspring survival early / litter size / litter size",200 mg/kg/day
same,LOAEL,[7]; [28],> 1800 mg/kg/day
same,NOAEL,[7]; [28],≥ 1800 mg/kg/day
same,LEL,[8]; [29],250 mg/kg/day
same,LOAEL,[8]; [29],> 750 mg/kg/day
same,NEL,[8]; [29],50 mg/kg/day
same,NOAEL,[8]; [29],≥ 750 mg/kg/day
same,LEL,[8]; [30],750 mg/kg/day
same,LOAEL,[8]; [30],> 750 mg/kg/day
same,NEL,[8]; [30],250 mg/kg/day
same,NOAEL,[8]; [30],≥ 750 mg/kg/day
CC(C)Oc1cc(-n2nc(C(C)(C)C)oc2=O)c(Cl)cc1Cl [Oxadiazon],LEL,[9],12 mg/kg/day
same,LOAEL,[9],12 mg/kg/day
same,NEL,[9],< 12 mg/kg/day
same,NOAEL,[9],< 12 mg/kg/day
same,LEL,[10]; [31],4.8 mg/kg/day
same,LOAEL,[10]; [31],4.8 mg/kg/day
same,NEL,[10]; [32],0.5 mg/kg/day
same,NOAEL,[10]; [32],0.5 mg/kg/day
same,LEL,[11]; [33],180 mg/kg/day
same,LOAEL,[11]; [33],180 mg/kg/day
same,NEL,[11]; [33],60 mg/kg/day
same,NOAEL,[11]; [33],60 mg/kg/day
same,LEL,[11]; [34],60 mg/kg/day
same,LOAEL,[11]; [34],60 mg/kg/day
same,NEL,[11]; [35],20 mg/kg/day
same,NOAEL,[11]; [35],20 mg/kg/day
same,LEL,[12],100 mg/kg/day
same,LOAEL,[12],100 mg/kg/day
same,NEL,[12],25 mg/kg/day
same,NOAEL,[12],25 mg/kg/day
same,LEL,[13]; [36],40 mg/kg/day
same,LOAEL,[13]; [36],40 mg/kg/day
same,NEL,[13]; [36],12 mg/kg/day
same,NOAEL,[13]; [36],12 mg/kg/day
same,LOAEL,"[13]; group: maternal, systemic / in life observation / body weight / body weight + systemic / in life observation / body weight / body weight gain",40 mg/kg/day
same,LEL,[13]; [37],40 mg/kg/day
same,NEL,[13]; [37],12 mg/kg/day
same,NOAEL,[13]; [37],12 mg/kg/day
same,LEL,[14],0.315 mg/kg/day
same,LOAEL,[14],10.6 mg/kg/day
same,NEL,[14],< 0.315 mg/kg/day
same,NOAEL,[14],1.09 mg/kg/day
same,LEL,[15]; [38],20 mg/kg/day
same,LOAEL,[15]; [38],20 mg/kg/day
same,NEL,[15]; [39],5 mg/kg/day
same,NOAEL,[15]; [39],5 mg/kg/day
same,LEL,[16],25 mg/kg/day
same,LOAEL,[16],25 mg/kg/day
same,NEL,[16],< 25 mg/kg/day
same,NOAEL,[16],< 25 mg/kg/day
